Measurements from patent US20230066011A1, “PYRROLOPYRIMIDINE DERIVATIVE, AND PHARMACEUTICAL COMPOSITION FOR PREVENTING OR TREATING PROTEIN KINASE-RELATED DISEASE COMPRISING SAME AS ACTIVE INGREDIENT” (VORONOI CO., LTD., priority 2019, published 2023).

Key:
Assay type in all cases: biochemical
LRRK2 (G2019S) = LRRK2 (G2019S) (Homo sapiens, UniProt Q5S007, G2019S); assay: LRRK2 G2019S enzyme inhibition, ADP-Glo kinase assay; design: purchased SignalChem L10-12GG; settings: ATP 25 μM
How it was run: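 Purified human LRRK2 G2019S (16 ng) with 25 μM ATP and 0.2 μg substrate, 2 h at 25° C. in Tris-HCl pH 7.4, MgCl2, BSA, DTT buffer; compounds at 12 final concentrations, 50 μM down to 0.000001024 μM. ADP-Glo luminescence versus solvent control gave IC50.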

human GST-CLK1 = biological target: T1, human GST-CLK1 (Homo sapiens, UniProt P49759); assay: GST-CLK1 enzyme inhibition, ADP-Glo kinase assay; settings: ATP 10 μM, GST-CLK1 129-end
T1 construct: purified human GST-CLK1 (129-end, SignalChem) enzyme; purchased SignalChem
T1 sequence (P49759 129-484 limits assumed): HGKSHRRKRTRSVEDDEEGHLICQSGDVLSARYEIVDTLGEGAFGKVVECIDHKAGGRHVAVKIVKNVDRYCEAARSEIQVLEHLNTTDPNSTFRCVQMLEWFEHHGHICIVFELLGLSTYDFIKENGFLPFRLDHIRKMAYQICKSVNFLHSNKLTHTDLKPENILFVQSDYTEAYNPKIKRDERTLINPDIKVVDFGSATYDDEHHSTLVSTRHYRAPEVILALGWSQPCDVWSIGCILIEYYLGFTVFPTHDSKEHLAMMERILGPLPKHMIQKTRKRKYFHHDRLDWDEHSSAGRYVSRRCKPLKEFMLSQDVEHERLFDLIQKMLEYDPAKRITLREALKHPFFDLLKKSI
How it was run: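 Human GST-CLK1 (129-end, 3 ng) reacted with substrate and 10 μM ATP for 1 h at 25° C in 40 mM Tris-HCl pH 7.4, 20 mM MgCl2, 0.5 mg/mL BSA, 50 μM DTT. ADP-Glo luminescence was normalised to solvent control; IC50 (nM) from 3 data sets.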

LRRK2 = LRRK2 (Homo sapiens, UniProt Q5S007); assay: LRRK2 enzyme inhibition, ADP-Glo kinase assay; design: purchased Invitrogen PR8604B; settings: ATP 10 μM
LRRK2, sequence (Q5S007 970-2527 limits assumed): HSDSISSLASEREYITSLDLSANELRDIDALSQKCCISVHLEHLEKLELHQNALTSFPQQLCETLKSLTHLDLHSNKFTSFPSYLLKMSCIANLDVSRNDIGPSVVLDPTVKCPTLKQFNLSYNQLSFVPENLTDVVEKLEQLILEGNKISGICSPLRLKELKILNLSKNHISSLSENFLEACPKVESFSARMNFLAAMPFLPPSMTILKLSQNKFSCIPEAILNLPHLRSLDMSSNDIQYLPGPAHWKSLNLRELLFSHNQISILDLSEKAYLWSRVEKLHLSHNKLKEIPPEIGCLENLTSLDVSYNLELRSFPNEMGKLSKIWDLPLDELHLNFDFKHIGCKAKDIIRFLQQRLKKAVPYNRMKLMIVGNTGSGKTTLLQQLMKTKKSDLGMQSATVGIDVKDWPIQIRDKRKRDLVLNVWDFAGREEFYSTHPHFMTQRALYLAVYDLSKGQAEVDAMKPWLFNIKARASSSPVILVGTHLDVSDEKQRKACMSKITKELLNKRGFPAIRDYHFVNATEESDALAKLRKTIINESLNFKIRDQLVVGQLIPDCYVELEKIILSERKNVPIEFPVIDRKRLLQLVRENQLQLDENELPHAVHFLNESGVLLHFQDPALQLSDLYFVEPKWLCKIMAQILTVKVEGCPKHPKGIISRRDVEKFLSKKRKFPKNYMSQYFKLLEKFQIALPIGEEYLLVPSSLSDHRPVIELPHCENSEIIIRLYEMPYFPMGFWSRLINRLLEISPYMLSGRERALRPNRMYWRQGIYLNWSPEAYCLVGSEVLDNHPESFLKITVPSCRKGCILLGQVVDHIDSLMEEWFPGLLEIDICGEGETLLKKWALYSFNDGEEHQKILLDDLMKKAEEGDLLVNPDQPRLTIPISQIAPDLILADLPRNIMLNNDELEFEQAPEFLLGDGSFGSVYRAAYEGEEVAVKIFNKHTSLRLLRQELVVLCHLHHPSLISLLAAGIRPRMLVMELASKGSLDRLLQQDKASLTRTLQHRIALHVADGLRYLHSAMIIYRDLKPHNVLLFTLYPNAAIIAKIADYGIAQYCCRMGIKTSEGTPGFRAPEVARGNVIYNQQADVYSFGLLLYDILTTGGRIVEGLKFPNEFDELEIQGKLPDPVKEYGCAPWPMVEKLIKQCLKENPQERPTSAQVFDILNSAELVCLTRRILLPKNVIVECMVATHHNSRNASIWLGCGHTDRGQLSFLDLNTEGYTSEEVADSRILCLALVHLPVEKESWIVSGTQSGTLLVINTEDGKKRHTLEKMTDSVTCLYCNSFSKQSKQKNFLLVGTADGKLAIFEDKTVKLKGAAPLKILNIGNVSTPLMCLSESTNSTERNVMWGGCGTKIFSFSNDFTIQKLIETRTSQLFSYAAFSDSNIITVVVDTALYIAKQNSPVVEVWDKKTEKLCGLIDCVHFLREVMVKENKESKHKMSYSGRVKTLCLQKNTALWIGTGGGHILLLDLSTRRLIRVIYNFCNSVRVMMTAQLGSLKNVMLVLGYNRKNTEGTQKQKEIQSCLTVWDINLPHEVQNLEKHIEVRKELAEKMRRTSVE
Description: To evaluate an inhibitory activity of the compound according to the present invention against LRRK2, LRRK2 (G2019S), DYRK1, CLK1, and TTK kinases, experiments were performed as follows.
Each of the Example compounds was reacted with a purified human LRRK2 (Invitrogen #PR8604B) enzyme to evaluate an ability to inhibit an enzyme using a method as described below. A composition of 40 mM Tris-HCl (pH 7.4), 20 mM MgCl2, 0.5 mg/mL BSA, and 50 μM DTT was used as a reaction buffer, and all reactions of test substances were performed in the reaction buffer. Each of the compounds was diluted […] from a 10 mM DMSO stock using a serial dilution method, and enzyme activities were measured at final compound concentrations of 50, 10, 2, 0.4, 0.08, 0.016, 0.0032, 0.00064, 0.000128, 0.0000256, 0.00000512, and 0.000001024 μM. In the test, purified ATP (10 μM) and an enzyme substrate (0.2 μg) were reacted with a human LRRK2 (25 ng) enzyme at 25° C. for 2 hours, and the enzyme activities were determined using an in vitro ADP-Glo™ kinase assay (Promega). An enzyme-activity reaction solution, an ADP-Glo reaction solution, and an enzyme-ability detection solution were reacted at a ratio of 2:2:1 to measure a degree of inhibition of the enzyme activity with luminescence. The degree of inhibition of the enzyme activity according to the treatment concentration of each of the compounds was calculated based on the fluorescence of the enzyme activity of the solvent control which was not treated with the compound. In this case, the concentration of each of the compounds inhibiting 50% of the enzyme activity was determined to be an IC50 (nM) value, and calculated using Prism (Version 5.01; GraphPad) software.

human GST-DYRK1A = biological target: T2, human GST-DYRK1A (Homo sapiens, UniProt Q13627); assay: GST-DYRK1A enzyme inhibition, ADP-Glo kinase assay; settings: ATP 10 μM, GST-DYRK1A full length, read-out: DYRK1 IC50
T2 construct: purified human GST-DYRK1A (full length, Thermo Scientifics) enzyme; purchased Thermo Scientifics
How it was run: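 Full-length human GST-DYRK1A (10 ng) with 10 μM ATP and specific substrate in 40 mM Tris-HCl pH 7.4, 20 mM MgCl2, 0.5 mg/mL BSA, 50 μM DTT, 1 h at 25 °C. ADP formation read by ADP-Glo luminescence relative to solvent control; IC50 from three data sets.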

LRRK2 (G2019S), sequence (Q5S007 970-2527 G2019S limits assumed): as the sequence (Q5S007 970-2527 limits assumed) above, with G1050S counted along it

SMILES	IC50 (LRRK2 (G2019S))	IC50 (human GST-CLK1)	IC50 (LRRK2)	IC50 (human GST-DYRK1A)
CNc1nc(Nc2ccc(C(=O)N3CCOCC3)c3c2OCCO3)nc2[nH]cc(C(F)(F)F)c12 [Example 155, (8-((4-(methyalmino)-5-(trifluoromethyl)-7H-pyrrolo[2,3-d]pyrimidin-2-yl)amino)-2,3-dihydrobenzo[b][1,4]dioxin-5-yl)(morpholino)methanone 2,2,2-trifluoroacetate]	< 100 nM	< 100 nM	< 100 nM	< 100 nM
CCNc1nc(Nc2ccc(S(C)(=O)=O)cc2OC)nc2[nH]cc(C#N)c12 [Example 98, 4-(ethylamino)-2-((2-methoxy-4-(methylsulfonyl)phenyl)amino)-7H-pyrrolo[2,3-d]pyrimidine-5-carbonitrile]	< 100 nM	301 to 1000 nM	< 100 nM	301 to 1000 nM
CC[C@@H](C)Nc1nc(Nc2ccc(C(=O)N3CCOCC3)c3c2OCCO3)nc2[nH]cc(C(F)(F)F)c12 [Example 174, (R)-(8-((4-(sec-butylamino)-5-(trifluoromethyl)-7H-pyrrolo[2,3-d]pyrimidin-2-yl)amino)-2,3-dihydrobenzo[b][1,4]dioxin-5-y)(morpholino)methanone]	< 100 nM	301 to 1000 nM	< 100 nM	301 to 1000 nM
COCCNc1nc(Nc2ccc(S(C)(=O)=O)cc2OC)nc2[nH]cc(C#N)c12 [Example 103, 2-((2-methoxy-4-(methylsulfonyl)phenyl)amino)-4-((2-methoxyethyl)amino)-7H-pyrrolo[2,3-d]pyrimidine-5-carbonitrile]	< 100 nM	301 to 1000 nM	< 100 nM	301 to 1000 nM
CCCNc1nc(Nc2ccc(S(C)(=O)=O)cc2OC)nc2[nH]cc(C(F)(F)F)c12 [Example 181, N^2-(2-methoxy-4-(methylsulfonyl)phenyl)-N^4-propyl-5-(trifluoromethyl)-7H-pyrrolo[2,3-d]pyrimidine-2,4-diamine]	101 to 300 nM	301 to 1000 nM	101 to 300 nM	301 to 1000 nM
COc1cc(S(C)(=O)=O)ccc1Nc1nc(NC2CCC2)c2c(C#N)c[nH]c2n1 [Example 105, 4-(cyclobutylamino)-2-((2-methoxy-4-(methylsulfonyl)phenyl)amino)-7H-pyrrolo[2,3-d]pyrimidine-5-carbonitrile]	< 100 nM	301 to 1000 nM	< 100 nM	301 to 1000 nM
O=C(c1ccc(Nc2nc(NC3CCC3)c3c(C(F)(F)F)c[nH]c3n2)c2c1OCCO2)N1CCC(N2CCOCC2)CC1 [Example 378, (8-((4-(cyclobutyl-amino)-5-(trifluoromethyl)-7H-pyrrolo[2,3-d]pyrimidin-2-yl)amino)-2,3-dihydrobenzo[b] [1,4]dioxin-5-yl) (4-morpholino-piperidin-1-yl)methanone]	< 100 nM	< 100 nM	< 100 nM	101 to 300 nM
COc1cc(S(C)(=O)=O)ccc1Nc1nc(NC2CCCC2)c2c(C#N)c[nH]c2n1 [Example 106, 4-(cyclopentylamino)-2-((2-methoxy-4-(methylsulfonyl)phenyl)amino)-7H-pyrrolo[2,3-d]pyrimidine-5-carbonitrile]	< 100 nM	301 to 1000 nM	< 100 nM	301 to 1000 nM
O=C(c1ccc(Nc2nc(NC3CCC3)c3c(C(F)(F)F)c[nH]c3n2)c2c1OCCO2)N1CCOCC1 [Example 185, (8-((4-(cyclobutylamino)-5-(trifluoromethyl)-7H-pyrrolo[2,3-d]pyrimidin-2-yl)amino)-2,3-dihydrobenzo[b][1,4]dioxin-5-yl)(morpholino)methanone]	101 to 300 nM	101 to 300 nM	< 100 nM	301 to 1000 nM
COCC(C)(C)Nc1nc(Nc2ccc(C(=O)N3CCOCC3)c3c2OCCO3)nc2[nH]cc(C(F)(F)F)c12 [Example 178, (8-((4-((1-methoxy-2-methylpropan-2-yl)amino)-5-(trifluoromethyl)-7H-pyrrolo[2,3-d]pyrimidin-2-yl)amino)-2,3-dihydrobenzo[b][1,4]dioxin-5-yl)(morpholino)methanone]	< 100 nM	301 to 1000 nM	< 100 nM	301 to 1000 nM
O=C(c1ccc(Nc2nc(NC3CCCC3)c3c(C(F)(F)F)c[nH]c3n2)c2c1OCCO2)N1CCOCC1 [Example 189, (8-((4-(cyclopentylamino)-5-(trifluoromethyl)-7H-pyrrolo[2,3-d]pyrimidin-2-yl)amino)-2,3-dihydrobenzo[b][1,4]dioxin-5-yl)(morpholino)methanone]	–	101 to 300 nM	< 100 nM	101 to 300 nM
COc1cc(S(C)(=O)=O)ccc1Nc1nc(NC2CCCC2)c2c(C(F)(F)F)c[nH]c2n1 [Example 188, N^4-cyclopentyl-N^2-(2-methoxy-4-(methylsulfonyl)phenyl)-5-(trifluoromethyl)-7H-pyrrolo[2,3-d]pyrimidine-2,4-diamine]	–	301 to 1000 nM	301 to 1000 nM	301 to 1000 nM

Continued, values first:

IC50 (LRRK2 (G2019S))	IC50 (human GST-CLK1)	IC50 (LRRK2)	IC50 (human GST-DYRK1A)	SMILES
< 100 nM	101 to 300 nM	< 100 nM	301 to 1000 nM	N#Cc1c[nH]c2nc(Nc3ccc(C(=O)N4CCOCC4)c4c3OCCO4)nc(NC3CCC3)c12 [Example 125, 4-(cyclobutylamino)-2-((8-(morpholine-4-carbonyl)-2,3-dihydrobenzo[b][1,4]dioxin-5-yl)amino)-7H-pyrrolo[2,3-d]pyrimidine-5-carbonitrile]
< 100 nM	< 100 nM	< 100 nM	301 to 1000 nM	CNc1nc(Nc2ccc(C(=O)N3CCOCC3)c3c2OCCO3)nc2[nH]cc(C#N)c12 [Example 118, 4-(methylamino)-2-((8-(morpholine-4-carbonyl)-2,3-dihydrobenzo[b][1,4]dioxin-5-yl)amino)-7H-pyrrolo[2,3-d]pyrimidine-5-carbonitrile]
< 100 nM	< 100 nM	< 100 nM	101 to 300 nM	CCNc1nc(Nc2ccc(C(=O)N3CCC(N4CCOCC4)CC3)c3c2OCCO3)nc2[nH]cc(C#N)c12 [Example 137, 4-(ethylamino)-2-((8-(4-morpholinopiperidine-1-carbonyl)-2,3-dihydrobenzo[b][1,4]dioxin-5-yl)amino)-7H-pyrrolo[2,3-d]pyrimidine-5-carbontrile]
< 100 nM	< 100 nM	< 100 nM	101 to 300 nM	COCCNc1nc(Nc2ccc(C(=O)N3CCOCC3)c3c2OCCO3)nc2[nH]cc(C#N)c12 [Example 123, 4-((2-methoxyethyl)amino)-2-((8-(morpholine-4-carbonyl)-2,3-dihydrobenzo[b][1,4]dioxin-5-yl)amino)-7H-pyrrolo[2,3-d]pyrimidine-5-carbonitrile]
< 100 nM	< 100 nM	< 100 nM	101 to 300 nM	N#Cc1c[nH]c2nc(Nc3ccc(C(=O)N4CCC(N5CCOCC5)CC4)c4c3OCCO4)nc(NC3CCC3)c12 [Example 259, 4-(cyclobutylamino)-2-((8-(4-morpholinopiperidine-1-carbonyl)-2,3-dihydrobenzo[b][1,4]dioxin-5-yl)amino)-7H-pyrrolo[2,3-d]pyrimidine-5-carbonitrile]
–	301 to 1000 nM	< 100 nM	301 to 1000 nM	CCNc1nc(Nc2ccc(C(=O)N3CCOCC3)c3c2OCO3)nc2[nH]cc(C#N)c12 [Example 277, 4-(ethylamino)-2-((7-(morpholine-4-carbonyl)benzo[d][1,3]dioxol-4-yl)amino)-7H-pyrrolo[2,3-d]pyrimidine-5-carbonitrile]
